Measurements: patent US8883213B2, “Ion exchange resin treated to control swelling” (Coating Place, Inc., priority 2005, dated 2014)
Counter-ions that a name gives are not always drawn.

Columns and labels:
[1] = Release of both drugs from coated layer loaded compound B-phenylephrine HCl-IRP-69 drug-resin complex (Table VII); assay type: physicochemical; settings: from coated layer loaded compound B-phenylephrine HCl-IRP-69 complex
Procedure: The present invention also provides compositions and methods of releasing two or more pharmaceutical compositions. For example, a phenylephrine HCl and IRP-69 drug-resin complex is prepared using any of the methods disclosed herein or as disclosed in the prior art. The phenylephrine HCl and IRP-69 drug-resin complex is directly loaded with a second drug (e.g., compound B) by spray applying a solution containing compound B to the phenylephrine HCl-IRP-69 drug-resin complex. This layer loaded complex (compound B-phenylephrine HCl-IRP-69 drug-resin complex) is then coated as previously described.

[2] = Release profile of phenylephrine hydrochloride from drug-resin complex with a 25% coating (Table V); assay type: physicochemical

CNC[C@H](O)c1cccc(O)c1 [Phenylephrine Hydrochloride]
Released ([1]; 0.5 hour): 48%
Released ([1]; 1.0 hour): 55%
Released ([1]; 1.5 hour): 76%
Released ([1]; 2.0 hour): 81%
Released ([1]; 4.0 hour): 92%
% Released ([2]; 0.5 hr): 25.5%
% Released ([2]; 1.0 hr): 30.5%
% Released ([2]; 3.0 hr): 61.0%
% Released ([2]; 6.0 hr): 93.0%
% Released ([2]; 12.0 hr): 97.0%
